# Target: recombinant human NUDT5 (Homo sapiens, UniProt Q9UKK9)
# Test: NUDT5 inhibitor activity by malachite green reporter assay
# Assay type: biochemical
# Conditions: Table 4; 6 nM NUDT5, 50 μM ADP-Ribose, 15 minutes at room temperature
# In short: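 Coupled ADP-ribose hydrolysis in 10 mM Tris-acetate pH 8.0, 40 mM NaCl, 10 mM Mg acetate, 0.005% Tween-20, 1 mM DTT: 6 nM NUDT5, 50 μM ADP-Ribose, 10 U/ml alkaline phosphatase, 15 min at room temperature. Pi read by malachite green at 630 nm; compounds 100 μM–1.7 nM, 3-fold; IC50 by curve fit.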
row,IC50 [nM],SMILES
1,286,"Cn1c(=O)c2c(nc(N3CCNCC3)n2Cc2nnc(-c3ccc([N+](=O)[O-])cc3)o2)n(C)c1=O [Example 115, 1,3-dimethyl-7-{[5-(4-nitrophenyl)-1,3,4-oxadiazol-2-yl]methyl}-8-(piperazin-1-yl)-2,3,6,7-tetrahydro-1H-purine-2,6-dione]"
2,21.6,"Cc1cc(-c2nnc(Cn3c(N4CCNCC4)nc4c3c(=O)n(C)c(=O)n4C)o2)ccc1Cl [Example 116, 7-{[5-(4-chloro-3-methylphenyl)-1,3,4-oxadiazol-2-yl]methyl}-1,3-dimethyl-8-(piperazin-1-yl)-2,3,6,7-tetrahydro-1H-purine-2,6-dione]"
3,64.2,"COc1cc(-c2nnc(Cn3c(N4CCNCC4)nc4c3c(=O)n(C)c(=O)n4C)o2)ccc1Cl [Example 117, 7-{[5-(4-chloro-3-methoxyphenyl)-1,3,4-oxadiazol-2-yl]methyl}-1,3-dimethyl-8-(piperazin-1-yl)-2,3,6,7-tetrahydro-1H-purine-2,6-dione]"
4,17.4,"COc1ccc(-c2nnc(Cn3c(N4CCNCC4)nc4c3c(=O)n(C)c(=O)n4C)o2)cc1Cl [Example 118, 7-{[5-(3-chloro-4-methoxyphenyl)-1,3,4-oxadiazol-2-yl]methyl}-1,3-dimethyl-8-(piperazin-1-yl)-2,3,6,7-tetrahydro-1H-purine-2,6-dione]"
5,35.7,"COc1cc(-c2nnc(Cn3c(N4CCNCC4)nc4c3c(=O)n(C)c(=O)n4C)o2)ccc1C [Example 119, 7-{[5-(3-methoxy-4-methylphenyl)-1,3,4-oxadiazol-2-yl]methyl}-1,3-dimethyl-8-(piperazin-1-yl)-2,3,6,7-tetrahydro-1H-purine-2,6-dione]"
6,80.5,"Cn1c(=O)c2c(nc(N3CCNCC3)n2Cc2nnc(-c3ccc4cc[nH]c4c3)o2)n(C)c1=O [Example 120, 7-{[5-(1H-indol-6-yl)-1,3,4-oxadiazol-2-yl]methyl}-1,3-dimethyl-8-(piperazin-1-yl)-2,3,6,7-tetrahydro-1H-purine-2,6-dione]"
7,51.6,"Cn1c(=O)c2c(nc(N3CCNCC3)n2Cc2nnc(-c3ccc(C(F)(F)F)cc3)o2)n(C)c1=O [Example 121, 1,3-dimethyl-8-(piperazin-1-yl)-7-({5-[4-(trifluoromethyl)phenyl]-1,3,4-oxadiazol-2-yl}methyl)-2,3,6,7-tetrahydro-1H-purine-2,6-dione]"
8,24400,"Cn1c(=O)c2c(nc(N3CCNCC3)n2Cc2nnc(-c3ccc(CS(C)(=O)=O)cc3)o2)n(C)c1=O [Example 122, 7-({5-[4-(methanesulfonylmethyl)phenyl]-1,3,4-oxadiazol-2-yl}methyl)-1,3-dimethyl-8-(piperazin-1-yl)-2,3,6,7-tetrahydro-1H-purine-2,6-dione]"
9,169,"COc1ccc(-c2nnc(Cn3c(N4CCNCC4)nc4c3c(=O)n(C)c(=O)n4C)o2)cc1OC [Example 123, 7-{[5-(3,4-dimethoxyphenyl)-1,3,4-oxadiazol-2-yl]methyl}-1,3-dimethyl-8-(piperazin-1-yl)-2,3,6,7-tetrahydro-1H-purine-2,6-dione]"
10,309,"Cn1c(=O)c2c(nc(N3CCNCC3)n2Cc2nnc(-c3ccc4[nH]ncc4c3)o2)n(C)c1=O [Example 124, 7-{[5-(1H-indazol-5-yl)-1,3,4-oxadiazol-2-yl]methyl}-1,3-dimethyl-8-(piperazin-1-yl)-2,3,6,7-tetrahydro-1H-purine-2,6-dione]"
11,216,"Cc1ccc(-c2nnc(Cn3c(N4CCNCC4)nc4c3c(=O)n(C)c(=O)n4C)o2)cn1 [Example 125, 1,3-dimethyl-7-{[5-(6-methylpyridin-3-yl)-1,3,4-oxadiazol-2-yl]methyl}-8-(piperazin-1-yl)-2,3,6,7-tetrahydro-1H-purine-2,6-dione]"
12,39.1,"COc1cc(-c2nnc(Cn3c(N4CCC(N(C)C)CC4)nc4c3c(=O)n(C)c(=O)n4C)o2)ccc1C [Example 126, 8-[4-(dimethylamino)piperidin-1-yl]-7-{[5-(3-methoxy-4-methylphenyl)-1,3,4-oxadiazol-2-yl]methyl}-1,3-dimethyl-2,3,6,7-tetrahydro-1H-purine-2,6-dione]"
13,32.9,"COc1cc(-c2nnc(Cn3c(N4CCC(CN)CC4)nc4c3c(=O)n(C)c(=O)n4C)o2)ccc1C [Example 127, 8-[4-(aminomethyl)piperidin-1-yl]-7-{[5-(3-methoxy-4-methylphenyl)-1,3,4-oxadiazol-2-yl]methyl}-1,3-dimethyl-2,3,6,7-tetrahydro-1H-purine-2,6-dione]"
14,128,"COc1cc(-c2nnc(Cn3c(NCC4CCN(C(=N)N)CC4)nc4c3c(=O)n(C)c(=O)n4C)o2)ccc1C [Example 128, 4-{[(7-{[5-(3-methoxy-4-methylphenyl)-1,3,4-oxadiazol-2-yl]methyl}-1,3-dimethyl-2,6-dioxo-2,3,6,7-tetrahydro-1H-purin-8-yl)amino]methyl}piperidine-1-carboximidamide]"
15,911,"COc1cc(-c2nnc(Cn3c(N4CCNC(C(F)(F)F)C4)nc4c3c(=O)n(C)c(=O)n4C)o2)ccc1C (stereo not drawn) [Example 129, 7-{[5-(3-methoxy-4-methylphenyl)-1,3,4-oxadiazol-2-yl]methyl}-1,3-dimethyl-8-[3-(trifluoromethyl)piperazin-1-yl]-2,3,6,7-tetrahydro-1H-purine-2,6-dione]"
16,205,"COc1cc(-c2nnc(Cn3c(N4CCC(CO)CC4)nc4c3c(=O)n(C)c(=O)n4C)o2)ccc1C [Example 130, 8-[4-(hydroxymethyl)piperidin-1-yl]-7-{[5-(3-methoxy-4-methylphenyl)-1,3,4-oxadiazol-2-yl]methyl}-1,3-dimethyl-2,3,6,7-tetrahydro-1H-purine-2,6-dione]"
17,60.7,"COc1cc(-c2nnc(Cn3c(N4CCCNCC4)nc4c3c(=O)n(C)c(=O)n4C)o2)ccc1C [Example 131, 8-(1,4-diazepan-1-yl)-7-{[5-(3-methoxy-4-methylphenyl)-1,3,4-oxadiazol-2-yl]methyl}-1,3-dimethyl-2,3,6,7-tetrahydro-1H-purine-2,6-dione]"
18,157,"COc1cc(-c2nnc(Cn3c(NCCC(N)=O)nc4c3c(=O)n(C)c(=O)n4C)o2)ccc1C [Example 132, 3-[(7-{[5-(3-methoxy-4-methylphenyl)-1,3,4-oxadiazol-2-yl]methyl}-1,3-dimethyl-2,6-dioxo-2,3,6,7-tetrahydro-1H-purin-8-yl)amino]propanamide]"
19,352,"COc1cc(-c2nnc(Cn3c(NCCNS(C)(=O)=O)nc4c3c(=O)n(C)c(=O)n4C)o2)ccc1C [Example 133, N-{2-[(7-{[5-(3-methoxy-4-methylphenyl)-1,3,4-oxadiazol-2-yl]methyl}-1,3-dimethyl-2,6-dioxo-2,3,6,7-tetrahydro-1H-purin-8-yl)amino]ethyl}methanesulfonamide]"
20,140,"Cn1c(=O)c2c(nc(N3CCNC(C(F)(F)F)C3)n2Cc2nnc(-c3ccc(Cl)c(Cl)c3)o2)n(C)c1=O (stereo not drawn) [Example 134, 7-{[5-(3,4-dichlorophenyl)-1,3,4-oxadiazol-2-yl]methyl}-1,3-dimethyl-8-[3-(trifluoromethyl)piperazin-1-yl]-2,3,6,7-tetrahydro-1H-purine-2,6-dione]"
21,96.3,"CN(C)CCN(C)c1nc2c(c(=O)n(C)c(=O)n2C)n1Cc1nnc(-c2ccc(Cl)c(Cl)c2)o1 [Example 135, 7-{[5-(3,4-dichlorophenyl)-1,3,4-oxadiazol-2-yl]methyl}-8-{[2-(dimethylamino)ethyl](methyl)amino}-1,3-dimethyl-2,3,6,7-tetrahydro-1H-purine-2,6-dione]"
22,8.27,"Cn1c(=O)c2c(nc(N3CCC(C(N)=O)CC3)n2Cc2nnc(-c3ccc(Cl)c(Cl)c3)o2)n(C)c1=O [Example 136, 1-(7-{[5-(3,4-dichlorophenyl)-1,3,4-oxadiazol-2-yl]methyl}-1,3-dimethyl-2,6-dioxo-2,3,6,7-tetrahydro-1H-purin-8-yl)piperidine-4-carboxamide]"
23,24.1,"COc1cc(-c2nnc(Cn3c(N(C)CCN(C)C)nc4c3c(=O)n(C)c(=O)n4C)o2)ccc1C [Example 137, 8-{[2-(dimethylamino)ethyl](methyl)amino}-7-{[5-(3-methoxy-4-methylphenyl)-1,3,4-oxadiazol-2-yl]methyl}-1,3-dimethyl-2,3,6,7-tetrahydro-1H-purine-2,6-dione]"
24,33.4,"COc1cc(-c2nnc(Cn3c(N4CCC(C(N)=O)CC4)nc4c3c(=O)n(C)c(=O)n4C)o2)ccc1C [Example 138, 1-(7-{[5-(3-methoxy-4-methylphenyl)-1,3,4-oxadiazol-2-yl]methyl}-1,3-dimethyl-2,6-dioxo-2,3,6,7-tetrahydro-1H-purin-8-yl)piperidine-4-carboxamide]"
25,265,"COc1cc(-c2nnc(Cn3c(N4CC[C@@H](N(C)C)C4)nc4c3c(=O)n(C)c(=O)n4C)o2)ccc1C [Example 139, 8-[(3R)-3-(dimethylamino)pyrrolidin-1-yl]-7-{[5-(3-methoxy-4-methylphenyl)-1,3,4-oxadiazol-2-yl]methyl}-1,3-dimethyl-2,3,6,7-tetrahydro-1H-purine-2,6-dione]"
26,262,"COc1cc(-c2nnc(Cn3c(SCCNC(=O)OC(C)(C)C)nc4c3c(=O)n(C)c(=O)n4C)o2)ccc1C [Example 140, tert-butyl N-{2-[(7-{[5-(3-methoxy-4-methylphenyl)-1,3,4-oxadiazol-2-yl]methyl}-1,3-dimethyl-2,6-dioxo-2,3,6,7-tetrahydro-1H-purin-8-yl)sulfanyl]ethyl}carbamate]"
27,306,"COc1cc(-c2nnc(Cn3c(SCCNC(C)=O)nc4c3c(=O)n(C)c(=O)n4C)o2)ccc1C [Example 141, N-{2-[(7-{[5-(3-methoxy-4-methylphenyl)-1,3,4-oxadiazol-2-yl]methyl}-1,3-dimethyl-2,6-dioxo-2,3,6,7-tetrahydro-1H-purin-8-yl)sulfanyl]ethyl}acetamide]"

# From US20210128566A1, “NOVEL FUNCTIONALIZED PURINE-2,6-DIONES AND THEIR USE IN MEDICINE” (THOMAS HELLEDAYS STIFTELSE FÖR MEDICINSK FORSKNING, priority 2017, published 2021)
